Laboratory results as given in patent US7345035B2, “Treatment of osteoporosis and autoimmune disease with astrogorgiadiol” (University of Delaware, priority 2003, dated 2008).

Assays:
osteopontin mRNA = test: Northern blot of osteopontin mRNA in ROS 17/2.8 cells; format: cell-based
Experimental: Changes in levels of mRNA encoding osteopontin induced by astrogorgiadiol were studied by Northern blot. Northern blot analysis was performed as described in Farach-Carson American Journal of Physiology 265: F705-F711 (1993), modified to include varying concentrations of astrogorgiadiol.
Briefly, […] cells were treated with 1 nM 1, 25 (OH)2vitD3 (BIOMOL Research Laboratories Inc., Plymouth Meeting, Pa.) or 1 nM 1, 25 (OH)2 vitD3 and 3 nM, 30 nM or 300 nM astrogorgiadiol for 0, 3 or 24 hours prior to harvest or with 3 nM, 30 nM or 300 nM astrogorgiadiol. mRNA was extracted using standard techniques. Osteopontin mRNA was detected using a ^32P-labeled osteopontin cDNA probe.

starfish eggs = details: cited from earlier work

SMILES: C=C1/C(=C\C=C2/CCC[C@]3(C)[C@@H]([C@H](C)CCCC(C)(C)O)CC[C@@H]23)C[C@@H](O)C[C@@H]1O [1,25 (OH)2 vitD3, reference compound]
- osteopontin mRNA level (Northern blot) (osteopontin mRNA; ROS 17/2.8 cells, 1 nM 1,25 (OH)2 vitD3, 0, 3 or 24 hours prior to harvest): increased osteopontin mRNA

SMILES: Cc1ccc(O)cc1CC[C@@H]1[C@H](O)CC[C@]2(C)[C@@H]([C@H](C)CCCC(C)C)CC[C@@H]12 [astrogorgiadiol, Astrogorgiadiol]
- cell division of starfish eggs (starfish eggs): inhibit cell division of starfish eggs
- 1,25 (OH)2 vitD3-induced osteopontin mRNA level (Northern blot) (osteopontin mRNA; 3 nM astrogorgiadiol with 1 nM 1,25 (OH)2 vitD3, ROS 17/2.8 cells): decreased 1,25 (OH)2 vitD3-induced osteopontin mRNA to levels approaching control levels
- osteopontin mRNA level (Northern blot) (osteopontin mRNA; 30 nM astrogorgiadiol with 1 nM 1,25 (OH)2 vitD3, ROS 17/2.8 cells): decreased the level of osteopontin mRNA below control levels
- osteopontin mRNA level (Northern blot) (osteopontin mRNA; 300 nM astrogorgiadiol with 1 nM 1,25 (OH)2 vitD3, ROS 17/2.8 cells): decreased the level of osteopontin mRNA below control levels
- osteopontin mRNA level (Northern blot), dose dependence (osteopontin mRNA; ROS 17/2.8 cells, 3 nM, 30 nM or 300 nM astrogorgiadiol, with 1 nM 1,25 (OH)2 vitD3): downregulated osteopontin mRNA in a dose-dependent manner
- concentration effective to downregulate osteopontin RNA production (osteopontin mRNA; in cells in vitro): 3 to 300 nM
